From PMC6943527, “Are the Hydantoin-1,3,5-triazine 5-HT6R Ligands a Hope to a Find New Procognitive and Anti-Obesity Drug? Considerations Based on Primary In Vivo Assays and ADME-Tox Profile In Vitro” (Molecules, 2019)
“And” between values parts separate entries of the source, which are not always exact repeats. Equal entries are not always repeated.

Legend:
[1] = Parallel artificial membrane permeability assay (PAMPA)
[2] = parameters: method as in PMID 30282913; details: cited from earlier work
hepatoma HepG2 cell line = test: Hepatotoxicity assay, HepG2 cell viability; format: cell-based; details: HepG2, 0.1-100 µM, 72 h
Description: The cell-based assays were used to investigate safety of the 5-HT6R ligands. […] During the same study, no effect for KMP-10 was observed. Additional safety tests with the hepatoma HepG2 cell line were performed here to estimate the compounds’ hepatotoxicity. A slight antiproliferative effect was observed only for DJ-18 at 100 µM, where the cell viability was decreased to up to ~83% of the control (Figure 9a).
Hepatotoxicity was estimated using the hepatoma HepG2 (ATCC® HB-8065^TM) cell line according to previously described protocols. The CellTiter 96® AQueous Non-Radioactive Cell Proliferation Assay was obtained from Promega (Madison, WI, USA). The compounds were investigated in quadruplicate at four concentrations (0.1–100 µM) for 72h. The antiproliferative drug DX was used as a positive control at a dose of 1 µM.

5-HT1A = target: 5-HT1A; parameters: method as in PMID 30282913; details: radioligand binding, average of at least two independent experiments; read-out: Ki 5-HT1A [3H]-8-OH-DPAT; cited from earlier work
5-HT6 = target: 5-HT6; parameters: method as in PMID 30282913; details: radioligand binding, average of at least two independent experiments; read-out: Ki 5-HT6 [3H]-LSD; cited from earlier work
[3] = Elevated plus-maze (EPM) test; format: in vivo, male Wistar rats; details: for Total distance / X Ambulation / Y Ambulation: mean ± SEM
Description: The experiments were performed on male Wistar rats (200–220 g) obtained from an accredited animal facility at the Jagiellonian University Medical College, Poland. The animals were housed in group of four in controlled environment (ambient temperature 21 ± 2 °C; relative humidity 50%–60%; 12-h light/dark cycles (lights on at 8:00). Standard laboratory food (LSM-B) and filtered water were freely available. Animals were randomly assigned to treatment groups. All the experiments were performed by two observers unaware of the studied treatment between 9:00 and 14:00 on separate groups of animals. All animals were used only once. Procedures involving animals and their care were conducted in accordance with current European Community and Polish legislation on animal experimentation. Additionally, all efforts were made to minimize animal suffering and to use only the number of animals necessary to produce reliable scientific data. The experimental protocols and procedures described in this manuscript were approved by the I Local Ethics Commission in Cracow (no 200/2018), complied with the European Communities Council Directive of 24 November 1986 (86/609/EEC), and were in accordance with the 1996 National Institutes of Health Guide for the Care and Use of Laboratory Animals.
All compounds were suspended in 1% Tween 80 immediately before administration in a volume of 2 mL/kg. Compounds were intraperitoneally administered 60 min before testing. Control animals received vehicle (1% Tween 80) according to the same schedule.
The testing procedure was based on a method described by. The plus-maze apparatus (an automated device produced by Campden Instruments Ltd. (United Kingdom) was made of durable, high density, non-porous black plastic, elevated to a height of 50 cm, and consisted of two open arms (50 × 10 cm) and two closed arms (50 × 10 cm, and 30 cm high walls) arranged so that the two arms of each type were opposite each other. The floor of the plus-maze was made of infrared transparent material, which means that there were no visible sensors. The plus-maze apparatus was connected to PC software by a control chassis. The experiments were conducted in a darkened room, and only the center of the maze was illuminated with low-intensity light (30 lux measured on the maze level). Each rat was gently placed in the center of the plus-maze, facing one of the closed arms, immediately after a 5-min adaptation period in a plastic black box (60 × 60 × 35 cm), to increase the overall activity in the EPM. During a 5-min test period, an automated motor monitor system recorded the number of entries into the closed and open arms and the time spent in either type of arm. The device counted an effective arm-entry when the four paws of a rat were into any arm. The maze was thoroughly cleaned after each trial. The EPM test is an “unconditional” anxiety-like test based on rodents’ natural aversion to heights and open space.
The experiment was performed using an EPM apparatus (details see above). Total ambulation (the total distance covered by a rat and ambulation along the X and Y axes) was taken into account to discern drug effects on general activity from those on open-arm exploration during a 5-min test period (i.e., the time equal to the observation period in the EPM test). Rats’ behavior was not videotaped during the test.

[4] = 0.3 mg/kg i.p., 60 min before test, 5-min session
[5] = 1 mg/kg i.p., 60 min before test, 5-min session
[6] = 3 mg/kg i.p., 60 min before test, 5-min session

CN1CCN(c2nc(N)nc(CN3C(=O)NC(C)(c4ccc5ccccc5c4)C3=O)n2)CC1 (centres unmarked) [KMP-10, 3-((4-amino-6-(4-methylpiperazin-1-yl)-1,3,5-triazin-2-yl)methyl)-5-methyl-5-(naphthalen-2-yl)imidazolidine-2,4-dione]
Papp at 5 h, 200 µM ([1]; PAMPA, pH 7.4): 3.76 ± 0.76 ×10⁻⁶ cm/s | PAMPA permeability, fold weaker than caffeine ([1]; vs caffeine): ~ 4 fold and 4 fold | Antidepressive-like properties in the Porsolt model [2]: antidepressive-like properties | Hepatotoxic character (hepatoma HepG2 cell line): did not show any hepatotoxic character | Ki (5-HT1A): 14.2 µM | Ki (5-HT6): 0.087 µM | Total distance [3, 4]: 3240 ± 209 cm | X Ambulation [3, 4]: 116 ± 18 | Y Ambulation [3, 4]: 98 ± 20 | Total distance [3, 5]: 4558 ± 205 cm | X Ambulation [3, 5]: 152 ± 17 | Y Ambulation [3, 5]: 63 ± 12 | Total distance [3, 6]: 3881 ± 298 cm | X Ambulation [3, 6]: 131 ± 18 | Y Ambulation [3, 6]: 133 ± 25 | Anxiolytic-like activity in EPM test ([3]; rats, doses of 1 and 3 mg/kg i.p., 60 min before test): showed anxiolytic-like activity | Locomotor activity in EPM test ([3]; rats, i.p.): no changes | Percentage of time spent in the open arms ([3]; rats, i.p., 5-min session, ANOVA F(3,22) = 15.774, p < 0.0001): increased | Time spent in the open arms ([3]; rats, i.p., 5-min session, ANOVA F(3,22) = 17.100, p < 0.0001): increased | Distance travelled in the open arms ([3]; rats, i.p., 5-min session, ANOVA p < 0.01): increased
